“Also recorded” adds a separate entry of the source. Where two headings read alike, the source gives them in different places. Each block holds one compound with its values, some of them ahead of it.
What was measured:
HarmOR10 = HarmOR10 (Helicoverpa armigera, UniProt A0A0G2RLT6); test: Xenopus oocyte two-electrode voltage clamp, HarmOR10 + Orco; type: cell-based
Description: (§1) In order to expand our analysis on the response properties of HarmORs, we conducted dose–response analyses for the 28 functional HarmORs. […] Six HarmORs (OR3, 22, 48, 50, 56, and 66) could not be activated by any ligand at 10^−5 M. For the other 22 HarmORs, dose–response curves were generated and EC50 values of their major ligands were calculated (fig. 2A and supplementary table S2, Supplementary Material online). The HarmOR repertoire was highly efficient in terpene detection, since the lowest EC50 values were obtained for such compounds. Many of these terpenes have been proposed to be defensive chemicals of plants. […] DMNT is also one of the oviposition deterring compounds found in larval frass of some Lepidoptera species such as S. littoralis ([Anderson et al. 1993]).
(§2) Functional characterization of individual ORs was performed by heterologous expression in Xenopus oocytes combined with a two-electrode voltage-clamp system ([Wang et al. 2010]). […] After incubation in nutrient solution at 18 °C for 3–5 days, the response profile of each oocyte to multiple plant odorants was recorded via a two-electrode voltage clamp (OC-725C oocyte clamp, Warner Instruments, Hamden, CT) at a holding potential of −80 mV. Data were acquired by using a Digidata 1440 A and were analyzed by pCLAMP 10.2 software (Axon Instruments Inc., Union City, CA). […]

HarmOR59 = HarmOR59 (Helicoverpa armigera, UniProt A0A7T3KAU6); test: Xenopus oocyte two-electrode voltage clamp, HarmOR59 + Orco; type: cell-based
Chain of HarmOR59 (A0A7T3KAU6 entry or part of it): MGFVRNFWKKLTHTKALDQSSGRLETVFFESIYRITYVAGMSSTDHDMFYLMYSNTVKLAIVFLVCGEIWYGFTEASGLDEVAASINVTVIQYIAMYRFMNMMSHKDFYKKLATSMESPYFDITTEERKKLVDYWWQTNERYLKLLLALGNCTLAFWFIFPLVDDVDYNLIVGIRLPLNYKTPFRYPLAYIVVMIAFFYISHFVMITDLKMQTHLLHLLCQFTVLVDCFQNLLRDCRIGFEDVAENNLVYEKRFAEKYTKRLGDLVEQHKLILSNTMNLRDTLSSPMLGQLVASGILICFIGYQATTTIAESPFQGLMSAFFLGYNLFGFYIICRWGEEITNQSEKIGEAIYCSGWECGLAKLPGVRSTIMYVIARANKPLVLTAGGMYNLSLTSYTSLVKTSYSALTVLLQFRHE
Description: as §1
(§3) Functional characterization of individual ORs was performed by heterologous expression in Xenopus oocytes combined with a two-electrode voltage-clamp system ([Wang et al. 2010]). Briefly, the full-length gene of each OR and Orco were subcloned into the eukaryotic expression vector pT7TS. cRNAs were generated from linearized expression vectors using the mMESSAGE mMACHINE T7 kit (Ambion, Austin, TX). Then, the cRNA mixture of ORx and Orco (27.6 ng each) was injected (Nanoliter 2010, WPI Inc., Sarasota, FL) into oocytes (stage V–VII). The respective Orcos of different species were used for functional studies of OR42 orthologs except for the four butterfly species (V. tameamea, P. xuthus, D. plexippus, and P. rapae), in which we used the Orco from P. xuthus. After incubation in nutrient solution at 18 °C for 3–5 days, the response profile of each oocyte to multiple plant odorants was recorded via a two-electrode voltage clamp (OC-725C oocyte clamp, Warner Instruments, Hamden, CT) at a holding potential of −80 mV. Data were acquired by using a Digidata 1440 A and were analyzed by pCLAMP 10.2 software (Axon Instruments Inc., Union City, CA).
(§4) Stock solutions of each odorant were prepared at 1 M using DMSO as a solvent, and each odorant was diluted in 1× Ringer’s solution to the indicated concentrations for electrophysiological recording. For functional screening of each HarmOR, a panel of 67 odorants belonging to three types of chemical classes: terpenes, aromatics, and aliphatics (short-chain fatty acid) were used (supplementary table S1, Supplementary Material online). For functional studies of OR42 orthologs from different species, six odorants including PAA, benzaldehyde, (E)-2-hexen-1-al, cinnamaldehyde, 2-phenylethanol, and heptanal were used.

HarmOR67 = HarmOR67 (Helicoverpa armigera, UniProt A0A7T3KAH1); test: Xenopus oocyte two-electrode voltage clamp, HarmOR67 + Orco; type: cell-based; conditions: dose response in oocytes, unit M
Chain of HarmOR67 (A0A7T3KAH1 entry or part of it): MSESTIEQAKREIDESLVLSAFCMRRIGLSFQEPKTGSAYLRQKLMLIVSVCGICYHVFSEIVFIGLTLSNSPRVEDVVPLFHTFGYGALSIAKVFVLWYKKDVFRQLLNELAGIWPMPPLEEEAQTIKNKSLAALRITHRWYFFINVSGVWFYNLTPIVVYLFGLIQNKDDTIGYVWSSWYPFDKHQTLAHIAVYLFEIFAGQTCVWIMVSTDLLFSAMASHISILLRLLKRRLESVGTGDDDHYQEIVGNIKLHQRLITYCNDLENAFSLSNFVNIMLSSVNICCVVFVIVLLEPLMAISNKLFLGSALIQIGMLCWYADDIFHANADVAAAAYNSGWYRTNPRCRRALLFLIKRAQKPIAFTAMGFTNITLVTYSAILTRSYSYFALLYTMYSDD
Description: as §1
as §3, with “CA). […]” for “CA).”

HarmOR27 = target: T1, HarmOR27 (Helicoverpa armigera, UniProt A0A7T3KAG1); test: Xenopus oocyte two-electrode voltage clamp, HarmOR27 + Orco; type: cell-based
T1 sequence (A0A7T3KAG1 1-426): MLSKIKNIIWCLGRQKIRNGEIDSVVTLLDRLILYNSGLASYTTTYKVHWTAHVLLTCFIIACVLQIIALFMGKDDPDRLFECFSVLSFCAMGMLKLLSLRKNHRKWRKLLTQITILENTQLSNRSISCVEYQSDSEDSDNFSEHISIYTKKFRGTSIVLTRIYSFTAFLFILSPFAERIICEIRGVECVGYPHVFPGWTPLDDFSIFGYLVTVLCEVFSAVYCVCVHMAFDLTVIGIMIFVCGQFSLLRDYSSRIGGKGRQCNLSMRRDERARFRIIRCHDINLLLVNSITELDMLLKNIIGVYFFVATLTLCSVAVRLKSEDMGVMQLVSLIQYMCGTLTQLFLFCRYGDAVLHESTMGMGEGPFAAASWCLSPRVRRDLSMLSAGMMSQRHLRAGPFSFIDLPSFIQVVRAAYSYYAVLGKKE
Description: as §1, §3, §4

HarmOR31 = HarmOR31 (Helicoverpa armigera, UniProt A0A7T3N2E9); test: Xenopus oocyte two-electrode voltage clamp, HarmOR31 + Orco; type: cell-based
Chain of HarmOR31 (A0A7T3N2E9 entry or part of it): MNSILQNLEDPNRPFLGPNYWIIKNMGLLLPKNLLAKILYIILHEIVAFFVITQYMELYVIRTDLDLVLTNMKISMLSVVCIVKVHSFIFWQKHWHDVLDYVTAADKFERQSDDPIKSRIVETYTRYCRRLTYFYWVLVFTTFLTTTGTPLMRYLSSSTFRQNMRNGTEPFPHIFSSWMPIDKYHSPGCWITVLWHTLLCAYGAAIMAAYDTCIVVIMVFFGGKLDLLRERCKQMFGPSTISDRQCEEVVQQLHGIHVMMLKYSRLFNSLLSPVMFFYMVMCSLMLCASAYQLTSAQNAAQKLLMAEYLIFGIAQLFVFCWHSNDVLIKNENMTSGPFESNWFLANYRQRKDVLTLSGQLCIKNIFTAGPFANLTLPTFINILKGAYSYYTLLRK
Text: In order to expand our analysis on the response properties of HarmORs, we conducted dose–response analyses for the 28 functional HarmORs. […] Many of these terpenes have been proposed to be defensive chemicals of plants.
Briefly, the full-length gene of each OR and Orco were subcloned into the eukaryotic expression vector pT7TS. cRNAs were generated from linearized expression vectors using the mMESSAGE mMACHINE T7 kit (Ambion, Austin, TX). […] The respective Orcos of different species were used for functional studies of OR42 orthologs except for the four butterfly species (V. tameamea, P. xuthus, D. plexippus, and P. rapae), in which we used the Orco from P. xuthus.
as §4

HarmOR19 = target: T2, HarmOR19 (Helicoverpa armigera, UniProt A0A7T3N0J7); test: Xenopus oocyte two-electrode voltage clamp, HarmOR19 + Orco; type: cell-based; conditions: dose response in oocytes, unit M
T2 sequence (A0A7T3N0J7 1-402): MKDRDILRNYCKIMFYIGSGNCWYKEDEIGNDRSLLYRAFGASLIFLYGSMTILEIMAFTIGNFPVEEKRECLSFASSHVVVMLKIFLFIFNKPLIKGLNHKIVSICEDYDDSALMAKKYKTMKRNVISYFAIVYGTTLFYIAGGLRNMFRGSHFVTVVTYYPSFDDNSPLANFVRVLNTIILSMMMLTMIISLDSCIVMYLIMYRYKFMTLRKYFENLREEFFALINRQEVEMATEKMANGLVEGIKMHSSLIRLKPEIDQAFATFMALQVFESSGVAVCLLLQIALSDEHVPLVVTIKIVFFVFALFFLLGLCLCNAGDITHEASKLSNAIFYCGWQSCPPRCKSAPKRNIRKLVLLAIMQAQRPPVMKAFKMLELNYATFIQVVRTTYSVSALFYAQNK
Description: as §1
as §3, with “CA). […]” for “CA).”

[1] = test system: H. armigera moth antennae; test: Electroantennography (EAG), wild-type vs HarmOR42 knock-out moths; type: in vivo, Helicoverpa armigera; conditions: single odorants, 1 μg
Text: We next conducted a loss-of-function study by generating a HarmOR42-lacking H. armigera strain by CRISPR/Cas9 targeting the first coding exon. Homozygous mutants were obtained with a large segment deletion of 203 bp and a 6-bp nonhomologous insertion in the genome (fig. 6B), introducing a premature stop codon in the coding sequence. […] The most likely hypothesis is that HarmOR42 is not the major receptor for sensing this compound in H. armigera. As a control, we tested the response of male moths to the sex pheromone component Z11-16: Ald that is not a ligand of HarmOR42. As expected, we observed no difference between the EAG responses of mutant and wild-type moths to this compound.
The antennae of 2- to 3-day-old virgin male and female moths were cut at the base of the flagellum. After removing the tip, one antenna was inserted between two glass electrodes filled with 0.1 M KCl solution. In each test, a 10-μl solution of each odorant was added onto a piece of filter paper (0.5 cm × 0.5 cm) and then inserted into a Pasteur pipette. About 100 ng/μl stock solutions of individual odorants and different doses of the mixture IAC were prepared with paraffin oil. A continuous airflow of 30 ml/s was produced by a stimulus controller (CS-55, Syntech, Kirchzarten, Germany). Odor stimulation was controlled by a puff of purified air (0.2 s at 10 ml/s airflow) from the CS-55. EAG signals were amplified with a 10× AC/DC headstage preamplifier (Syntech) and further acquired with an Intelligent Data Acquisition Controller (IDAC-4-USB, Syntech) ([Cao et al. 2016]). The signals were recorded, monitored, and analyzed using Syntech EAG-software (Syntech, Germany). The EAG response values for each compound were calculated by subtracting the value of the same antennae corresponding to a solvent blank of paraffin oil.

HarmOR42 = HarmOR42 (Helicoverpa armigera, UniProt A0A7T3KAF6); test: Xenopus oocyte two-electrode voltage clamp, HarmOR42 + Orco; type: cell-based; conditions: 67 odorants at 10^−4 M
Chain of HarmOR42 (A0A7T3KAF6 entry or part of it): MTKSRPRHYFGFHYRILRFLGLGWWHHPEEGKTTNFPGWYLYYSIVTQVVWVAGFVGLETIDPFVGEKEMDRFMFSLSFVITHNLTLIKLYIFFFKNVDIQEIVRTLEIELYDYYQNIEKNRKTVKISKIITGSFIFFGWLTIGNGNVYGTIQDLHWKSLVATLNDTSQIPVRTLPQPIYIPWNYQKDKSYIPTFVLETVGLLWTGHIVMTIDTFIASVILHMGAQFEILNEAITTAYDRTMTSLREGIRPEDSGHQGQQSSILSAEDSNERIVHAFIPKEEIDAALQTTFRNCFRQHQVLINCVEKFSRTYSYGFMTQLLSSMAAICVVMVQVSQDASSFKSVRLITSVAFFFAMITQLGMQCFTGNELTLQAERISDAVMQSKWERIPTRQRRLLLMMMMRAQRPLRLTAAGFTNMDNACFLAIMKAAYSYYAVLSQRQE
Text: In preliminary screening, we used a high dosage (10^−4 M) of odorants. […] Most functional ORs responded robustly to multiple odorants. The strongest response (up to ∼6,000 nanoampere, nA) we detected was that of HarmOR42 toward the aromatic compound PAA. Further, the response profiles of the 28 HarmORs appeared to be highly differentiated, with no apparent overlap in their tuning spectra (with the exception of HarmOR12 and 36) according to functional cluster analysis (fig. 1A).
as §1, §3, §4

HarmOR43 = target: T3, HarmOR43 (Helicoverpa armigera, UniProt A0A7T3KAF8); test: Xenopus oocyte two-electrode voltage clamp, HarmOR43 + Orco; type: cell-based; conditions: dose response in oocytes, unit M
T3 sequence (A0A7T3KAF8 1-415): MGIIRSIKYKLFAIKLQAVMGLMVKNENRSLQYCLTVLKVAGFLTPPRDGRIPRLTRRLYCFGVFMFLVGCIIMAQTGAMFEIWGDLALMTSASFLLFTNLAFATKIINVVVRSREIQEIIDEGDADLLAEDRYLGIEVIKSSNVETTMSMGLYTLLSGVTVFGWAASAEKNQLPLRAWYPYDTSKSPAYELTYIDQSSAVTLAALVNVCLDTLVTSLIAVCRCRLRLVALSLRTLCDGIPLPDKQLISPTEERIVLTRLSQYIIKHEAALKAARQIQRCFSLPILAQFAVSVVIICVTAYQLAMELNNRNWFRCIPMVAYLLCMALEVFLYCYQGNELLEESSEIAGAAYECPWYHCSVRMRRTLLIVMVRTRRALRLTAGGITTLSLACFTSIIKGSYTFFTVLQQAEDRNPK
Description: as §1
as §3, with “CA). […]” for “CA).”

HarmOR29 = HarmOR29 (Helicoverpa armigera, UniProt A0A7T3KAG0); test: Xenopus oocyte two-electrode voltage clamp, HarmOR29 + Orco; type: cell-based; conditions: dose response in oocytes, unit M
Chain of HarmOR29 (A0A7T3KAG0 1-395): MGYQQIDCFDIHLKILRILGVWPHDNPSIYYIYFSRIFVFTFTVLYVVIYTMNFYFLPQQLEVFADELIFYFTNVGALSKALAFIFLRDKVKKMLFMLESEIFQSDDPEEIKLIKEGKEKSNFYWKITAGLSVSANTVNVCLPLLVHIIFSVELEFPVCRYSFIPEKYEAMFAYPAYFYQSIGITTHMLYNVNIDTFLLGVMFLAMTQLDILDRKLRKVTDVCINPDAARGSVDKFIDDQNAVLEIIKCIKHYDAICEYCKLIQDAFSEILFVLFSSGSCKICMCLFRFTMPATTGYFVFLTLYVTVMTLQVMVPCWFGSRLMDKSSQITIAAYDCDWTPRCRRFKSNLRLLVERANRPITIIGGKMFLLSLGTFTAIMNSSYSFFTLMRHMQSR
Description: as §1, §2

[2] = test system: HarmOR42 orthologs from 11 lepidopteran species; test: Xenopus oocyte voltage clamp of HarmOR42 orthologs, six-odorant screen; type: cell-based; conditions: six compounds at 10^−4 M; 11 species
Text: We gathered additional experimental evidence to support this conservation of a PAA-sensing function by performing in vitro functional characterization of HarmOR42 orthologs from 11 lepidopteran species belonging to eight families (fig. 5B). […] It should be noted that the species studied here included three Noctuidae species (H. armigera, H. assulta, and Mythimna separata), four moths from Bombycidae (Bombyx mori), Crambidae (Chilo suppressalis), Sphingidae (Manduca sexta), and Tortricidae (Grapholitha molesta) ([Mitter et al. 2017]; [Kawahara et al. 2019]), and four diurnal butterfly species from diverse families (Vanessa tameamea, Papilio xuthus, Danaus plexippus, and Pieris rapae) (fig. 5B). […]
as §2

EsemOR19 = test: Xenopus oocyte voltage clamp of EsemOR19; type: cell-based, Eriocrania semipurpurella; conditions: 10^−4 M
Text: We also examined the response profile of EsemOR19 from E. semipurpurella, an OR that falls close to the HarmOR42-defined clade but that is not considered as a HarmOR42 ortholog. […] We also characterized the function of RnubOR13 from R. nubila (Trichoptera), a species from a sister order of Lepidoptera. […] Unfortunately, the putative E. semipurpurella OR that would consist of EsemOR34 + 35 and that falls at the base of the HarmOR42 clade could not be tested as it is incomplete.
Full-length coding sequences of 45 ORs (including Orco) of H. armigera, and OR42 and Orco orthologs in B. mori, H. assulta, G. molesta, and M. separate were amplified from the antennal cDNA of each species adults by PCR with specific primer pairs of each gene. […]
as §2

HarmOR35 = HarmOR35 (Helicoverpa armigera, UniProt A0A7T3N1A8); test: Xenopus oocyte two-electrode voltage clamp, HarmOR35 + Orco; type: cell-based; conditions: HarmOR35; dose response in oocytes; unit M; read-out: EC50
Chain of HarmOR35 (A0A7T3N1A8 entry or part of it): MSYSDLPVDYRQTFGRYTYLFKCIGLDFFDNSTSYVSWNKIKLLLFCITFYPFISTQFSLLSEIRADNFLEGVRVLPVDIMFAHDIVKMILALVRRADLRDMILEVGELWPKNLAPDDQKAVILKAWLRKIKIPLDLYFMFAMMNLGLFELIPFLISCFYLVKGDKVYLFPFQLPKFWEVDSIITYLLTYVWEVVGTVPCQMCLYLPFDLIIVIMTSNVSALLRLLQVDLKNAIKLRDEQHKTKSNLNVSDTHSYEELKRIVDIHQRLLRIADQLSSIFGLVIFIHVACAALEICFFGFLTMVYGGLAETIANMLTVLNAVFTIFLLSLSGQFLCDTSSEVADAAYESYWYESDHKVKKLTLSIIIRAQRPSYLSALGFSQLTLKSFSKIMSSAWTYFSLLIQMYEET
Description: as §1, §2

Chain of HarmOR10 (A0A0G2RLT6 1-390): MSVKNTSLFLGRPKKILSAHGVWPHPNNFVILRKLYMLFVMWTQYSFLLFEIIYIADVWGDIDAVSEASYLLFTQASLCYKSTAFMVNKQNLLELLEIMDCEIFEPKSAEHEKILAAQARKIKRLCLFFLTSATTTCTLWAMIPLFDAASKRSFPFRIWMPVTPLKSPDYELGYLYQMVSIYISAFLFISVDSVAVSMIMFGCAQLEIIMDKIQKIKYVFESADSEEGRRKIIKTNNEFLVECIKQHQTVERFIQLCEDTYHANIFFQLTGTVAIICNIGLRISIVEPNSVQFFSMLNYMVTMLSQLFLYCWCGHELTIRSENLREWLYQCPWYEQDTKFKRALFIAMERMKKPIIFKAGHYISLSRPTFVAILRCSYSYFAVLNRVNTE

SMILES: O=Cc1ccccc1 [Benzaldehyde]
EC50 (HarmOR10): 124 µM
ligand tuning of HarmOR10 (HarmOR10; 67 odorants at 10^−4 M): specific ligand
EC50 (HarmOR59): 12 µM

EC50 (HarmOR67): 218 µM
SMILES: CCCCCCCO [1-Heptanol]

SMILES: CCOC(=O)c1ccccc1 [Ethyl benzoate]
EC50 (HarmOR27): 68.7 µM
EC50 (HarmOR31): 13.2 µM
EC50 (HarmOR19): 60.2 µM

EC50 (HarmOR67): 302 µM
ligand tuning of HarmOR42 (HarmOR42): minor ligands
SMILES: CCCCCCC=O [Heptanal]
EAG response of HarmOR42 knock-out mutants compared with wild-type moths [1]: significantly decreased

SMILES: COC(=O)c1ccc(O)cc1 [Methyl 4-hydroxybenzoate]
EC50 (HarmOR43): 19.6 µM
EC50 (HarmOR29): 178 µM

SMILES: O=C/C=C/c1ccccc1 [Cinnamaldehyde]
EAG response of HarmOR42 knock-out mutants compared with wild-type moths [1]: significantly decreased
ligand tuning of HarmOR42 orthologs [2]: minor ligands
EC50 (HarmOR59): 1.72 µM
response of EsemOR19 (EsemOR19): very weak current; also recorded: responded
ligand tuning of HarmOR42 (HarmOR42): minor ligands

SMILES: COC(=O)c1ccccc1 [Methyl benzoate]
EC50 (HarmOR27): 13.1 µM
EC50 (HarmOR43): 15.5 µM

SMILES: CCCCOC(=O)c1ccccc1O [Butyl salicylate]
response of HarmOR27 (HarmOR27; odorant 10^−4 M): maximal response
response of HarmOR27 (HarmOR27; odorant 10^−5 M): failed to evoke any current
EC50 (HarmOR19): 402 µM

EC50 (HarmOR35): 255 µM
SMILES: CC1(C)[C@H]2CC=C(C=O)[C@@H]1C2 [(1R)-(-)-Myrtenal]

SMILES: CCc1ccc(C(C)=O)cc1 [4'-Ethylacetophenone]
EC50 (HarmOR19): 16.7 µM

EC50 (HarmOR31; HarmOR31, dose response in oocytes, unit M, read-out: EC50): 96.1 µM
EC50 (HarmOR67): 33.1 µM
SMILES: CCCCCCCCO [1-Octanol]

SMILES: COC(=O)c1ccccc1O [Methyl salicylate]
EC50 (HarmOR27): 15.6 µM
EC50 (HarmOR43): 15.8 µM
